Reference: ChEMBL document CHEMBL5329193, “Targeting Mycobacterium tuberculosis iron-scavenging tools: a recent update on siderophores inhibitors” (RSC Med Chem, 2023)
Values after ≈ are worked out from the molar mass of the structure shown.

How the values were obtained:
[1] = test system: Mycobacterium tuberculosis; test: Antimycobacterial activity against Mycobacterium tuberculosis H37Ra assessed as reduction in bacterial growth by MABA method; assay type: functional
[2] = test system: Mycobacterium tuberculosis; test: Antimycobacterial activity against Mycobacterium tuberculosis assessed as reduction in bacterial growth measured after 7 days by fluorescence microplate analysis; assay type: functional, organism-based; settings: 168 h; for MIC: time 7 day
[3] = test system: Mycobacterium tuberculosis; test: Antimycobacterial activity against Mycobacterium tuberculosis H37Rv assessed as reduction in bacterial growth incubated for 5 days by resazurin dye based fluorescence analysis; assay type: functional; settings: 120 h, time 5 day
[4] = Cytotoxicity against mouse RAW264.7 cells assessed as reduction in cell viability incubated for 48 hrs by MTT assay; assay type: toxicity, cell-based
[5] = test system: Mycobacterium tuberculosis; test: Antimycobacterial activity against intracellular Mycobacterium tuberculosis assessed as reduction in cell growth; assay type: functional
[6] = test system: Mycobacterium tuberculosis; test: Antimycobacterial activity against Mycobacterium tuberculosis assessed as reduction in bacterial cell growth measured after 24 hrs; assay type: functional, organism-based
[7] = test system: Mycobacterium tuberculosis; test: Antimycobacterial activity against Mycobacterium tuberculosis assessed as inhibition of bacterial growth incubated for 7 days by broth dilution method; assay type: functional; settings: 168 h, time 7 day
[8] = Binding affinity to Mycobacterium tuberculosis salicylate synthase using chorismic acid as substrate in presence of MgCl2 by fluorimetric assay
[9] = test system: Mycobacterium tuberculosis; test: Antibacterial activity against Mycobacterium tuberculosis H37Rv assessed as reduction in bacterial growth; assay type: functional
[10] = test system: Mycobacterium tuberculosis; test: Antimycobacterial activity against Mycobacterium tuberculosis H37Rv assessed as inhibition of bacterial growth incubated for 5 days by broth microdilution method; assay type: functional; settings: 120 h, time 5 day
[11] = test system: Mycobacterium tuberculosis; test: Antibacterial activity against Mycobacterium tuberculosis H37Rv assessed as reduction in bacterial growth incubated for 7 to 14 days; assay type: functional; settings: time 7-14 day
[12] = test system: Mycobacterium tuberculosis; test: Antimicrobial activity against Mycobacterium tuberculosis H37Rv assessed as reduction in bacterial growth by Alamar Blue fluorescence assay; assay type: functional
[13] = test system: Mycobacterium tuberculosis; test: Antibacterial activity against Mycobacterium tuberculosis H37Rv assessed as reduction in bacterial growth incubated for 7 to 14 days by broth microdilution method; assay type: functional; settings: time 7-14 day
[14] = Inhibition of Mycobacterium tuberculosis IdeR assessed as reduction in IdeR DNA binding activity by electrophoretic mobility shift assay
[15] = test system: Mycobacterium tuberculosis; test: Antitubercular activity against Mycobacterium tuberculosis H37Rv assessed as reduction in microbial growth by broth dilution method; assay type: functional, organism-based
[16] = target: T1, Enoyl-[acyl-carrier-protein] reductase [NADH] (Mycobacterium tuberculosis, UniProt P9WGR1); test: Binding affinity to Mycobacterium tuberculosis InhA assessed as inhibition constant
T1 sequence (P9WGR1 whole entry): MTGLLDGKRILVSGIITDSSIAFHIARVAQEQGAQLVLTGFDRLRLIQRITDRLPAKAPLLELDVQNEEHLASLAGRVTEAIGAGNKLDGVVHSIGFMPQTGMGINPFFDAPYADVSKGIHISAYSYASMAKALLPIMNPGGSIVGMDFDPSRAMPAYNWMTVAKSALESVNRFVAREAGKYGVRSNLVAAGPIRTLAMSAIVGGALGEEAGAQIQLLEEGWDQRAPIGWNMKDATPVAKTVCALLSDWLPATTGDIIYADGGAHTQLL

[17] = test system: Mycobacterium tuberculosis; test: Antitubercular activity against Mycobacterium tuberculosis XDR-FJ05195 assessed as inhibition of bacterial growth incubated for 14 days by microplate alamar blue assay; assay type: functional; settings: XDR-FJ05195, 336 h, time 14 day
[18] = test system: Mycobacterium tuberculosis; test: Antimycobacterial activity against Mycobacterium tuberculosis H37Rv by green fluorescent protein microplate assay; assay type: functional
[19] = test system: Mycobacterium tuberculosis; test: Antitubercular activity against Mycobacterium tuberculosis H37Rv ATCC 25618 assessed as reduction in bacterial growth; assay type: functional
[20] = Inhibition of recombinant Mycobacterium tuberculosis salicylate synthase by fluorimetric assay
[21] = test system: Mycobacterium tuberculosis; test: Antimycobacterial activity against Mycobacterium tuberculosis H37Rv assessed as reduction in bacterial growth after 7 days by resazurin based fluorescence assay; assay type: functional, organism-based; settings: 168 h
[22] = test system: Mycobacterium tuberculosis; test: Antimycobacterial activity against Mycobacterium tuberculosis H37Rv assessed as inhibition of bacterial growth incubated for 7 days by broth dilution method; assay type: functional; settings: 168 h, time 7 day
[23] = test system: Mycolicibacterium smegmatis; test: Antimycobacterial activity against Mycobacterium smegmatis ATCC 607 assessed as bacterial growth inhibition incubated for 48 hrs by resazurin dye based assay; assay type: functional
[24] = target: T2, Trehalose monomycolate exporter MmpL3 (Mycolicibacterium smegmatis, UniProt A0QP27); test: Binding affinity to Mycobacterium smegmatis MmpL3 by surface plasmon resonance assay
T2 sequence (A0QP27 whole entry): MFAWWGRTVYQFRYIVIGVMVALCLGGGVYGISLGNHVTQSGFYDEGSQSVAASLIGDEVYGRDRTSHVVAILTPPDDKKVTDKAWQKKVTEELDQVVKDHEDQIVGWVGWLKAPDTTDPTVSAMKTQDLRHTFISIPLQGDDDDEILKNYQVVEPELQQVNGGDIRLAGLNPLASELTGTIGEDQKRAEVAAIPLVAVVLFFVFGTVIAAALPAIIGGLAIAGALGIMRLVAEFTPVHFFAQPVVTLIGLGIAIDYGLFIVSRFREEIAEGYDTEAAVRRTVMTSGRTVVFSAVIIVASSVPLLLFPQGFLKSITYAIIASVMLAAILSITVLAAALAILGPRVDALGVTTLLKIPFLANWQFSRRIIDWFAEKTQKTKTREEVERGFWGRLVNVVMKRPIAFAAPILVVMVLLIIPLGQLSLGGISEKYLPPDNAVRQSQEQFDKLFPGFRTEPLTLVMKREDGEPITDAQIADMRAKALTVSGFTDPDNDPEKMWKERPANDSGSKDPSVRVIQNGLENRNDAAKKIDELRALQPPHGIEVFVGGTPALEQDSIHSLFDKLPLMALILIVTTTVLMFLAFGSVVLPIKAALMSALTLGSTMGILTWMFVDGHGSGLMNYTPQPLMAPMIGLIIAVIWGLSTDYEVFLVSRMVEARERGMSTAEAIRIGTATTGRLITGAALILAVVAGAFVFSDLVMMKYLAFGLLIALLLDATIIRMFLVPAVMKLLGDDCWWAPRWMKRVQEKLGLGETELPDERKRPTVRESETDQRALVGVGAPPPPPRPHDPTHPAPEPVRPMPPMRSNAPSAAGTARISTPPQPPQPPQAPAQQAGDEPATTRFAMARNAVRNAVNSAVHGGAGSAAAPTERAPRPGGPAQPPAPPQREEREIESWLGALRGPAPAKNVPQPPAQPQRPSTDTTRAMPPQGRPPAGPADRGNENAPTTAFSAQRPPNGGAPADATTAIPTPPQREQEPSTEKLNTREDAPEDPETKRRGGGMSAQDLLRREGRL

[25] = test system: Mycolicibacterium smegmatis; test: Antimycobacterial activity against Mycobacterium smegmatis assessed as bacterial growth inhibition incubated for 48 hrs by resazurin dye based assay; assay type: functional
[26] = target: T3, Salicyl-AMP ligase / salicyl-S-ArCP synthetase (Mycobacterium tuberculosis, UniProt P71716); test: Binding affinity to Mycobacterium tuberculosis H37Rv ATCC 25618 MbtA assessed as apparent binding constant; settings: read-out: Ki(app)
T3 sequence (P71716 whole entry): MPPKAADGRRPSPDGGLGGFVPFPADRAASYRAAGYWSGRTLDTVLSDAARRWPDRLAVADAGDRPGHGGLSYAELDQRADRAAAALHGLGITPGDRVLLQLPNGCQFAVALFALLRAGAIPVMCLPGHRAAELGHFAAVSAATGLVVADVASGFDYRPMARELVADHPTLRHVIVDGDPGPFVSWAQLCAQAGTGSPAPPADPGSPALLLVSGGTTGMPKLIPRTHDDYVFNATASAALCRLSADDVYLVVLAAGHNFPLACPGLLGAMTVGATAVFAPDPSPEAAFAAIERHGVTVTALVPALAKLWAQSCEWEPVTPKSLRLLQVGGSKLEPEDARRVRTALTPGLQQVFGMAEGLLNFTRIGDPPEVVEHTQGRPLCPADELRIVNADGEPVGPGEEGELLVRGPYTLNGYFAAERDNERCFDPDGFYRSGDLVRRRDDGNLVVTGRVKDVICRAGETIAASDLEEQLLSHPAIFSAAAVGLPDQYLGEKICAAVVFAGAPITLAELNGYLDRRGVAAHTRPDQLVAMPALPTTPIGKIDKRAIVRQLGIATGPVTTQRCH

Structure (SMILES): C[N+](C)(CCCN1c2ccccc2Sc2ccc(Cl)cc21)Cc1ccccc1
- MIC [1]: 1.1 mg/L

Structure (SMILES): Cc1ccc(-n2sc3ccccc3c2=O)cc1
- IC50 [2]: 1.59 µM

Structure (SMILES): O=[N+]([O-])c1cc(C(F)(F)F)ccc1NCCc1c[nH]c2ccc(O)cc12
- MIC90 [3]: 13 µM (≈ 4.75 µg/mL)
- IC50 at 48 h [4]: 29 µM
- IC90 [5]: 9.3 µM

Structure (SMILES): CCN(CC)S(=O)(=O)c1cccc(-n2sc3ccccc3c2=O)c1
- IC50 [6]: 0.96 µM
- IC50 [2]: 0.86 µM

Structure (SMILES): O=C(O)c1ccc(-c2ccc([N+](=O)[O-])cc2Cl)o1
- MIC [7]: 21.1 µM (≈ 5.65 µg/mL)

Structure (SMILES): Nc1ncnc2c1ncn2[C@@H]1O[C@H](CNS(=O)(=O)NC(=O)c2ccccc2O)[C@@H](O)[C@H]1F
- Ki [8]: 0.0017 µM
- MIC [9]: 0.19 µM (≈ 0.0888 µg/mL)

Structure (SMILES): Nc1ncnc2c1ncn2[C@@H]1O[C@H](COS(=O)(=O)NC(=O)c2ccccc2O)[C@@H](O)[C@H]1O
- MIC [10]: 0.5 mg/L (≈ 1.07 µM)
- MIC [11]: 1.56 µM (≈ 0.728 µg/mL)
- MIC [12]: 0.39 mg/L (≈ 0.836 µM)
- MIC [13]: 0.39 µM (≈ 0.182 µg/mL)

Structure (SMILES): O=C(O)C1(Cc2ccc(O)c(O)c2)NCCS1 (stereo not drawn)
- IC50 [14]: 2.4 mg/L

Structure (SMILES): N#Cc1cc(-c2ccc(C(=O)O)o2)cc(C(F)(F)F)c1
- IC50 [15]: 15 µM
- Ki [16]: 9 µM

Structure (SMILES): CCCCCCCCCCCCCCCCC(=O)N(O)CCCC[C@H](NC(=O)[C@@H]1COC(c2ccccc2O)=N1)C(=O)NC[C@H](CC(=O)CCCO[C@H]1O[C@@H]2O[C@@]3(C)CC[C@H]4[C@H](C)CC[C@@H]([C@H]1C)[C@@]24OO3)C(=O)N[C@H]1CCCCN(O)C1=O
- MIC [17]: 0.078 mg/L (≈ 0.0668 µM)
- MIC [18]: 0.39 mg/L (≈ 0.334 µM)

Structure (SMILES): O=S(=O)(O)c1ccc(O)c(NNc2c(O)ccc3ccccc23)c1
- IC50 [14]: 1 mg/L

Structure (SMILES): Nc1ncnc2c1ncn2[C@@H]1O[C@H](CNS(=O)(=O)NC(=O)c2ccccc2O)[C@@H](O)[C@@H]1F
- Ki [8]: 0.0018 µM
- MIC [9]: 0.15 µM (≈ 0.0701 µg/mL)

Structure (SMILES): Nc1ncnc2c1ncn2[C@@H]1O[C@H](CNS(=O)(=O)NC(=O)c2ccccc2O)[C@H](F)[C@H]1F
- MIC [2]: 0.78 µM (≈ 0.366 µg/mL)
- Ki [8]: 0.0014 µM

Structure (SMILES): Cc1ccc(S(=O)(=O)C2CC(=O)N(c3ccc(F)c(Cl)c3)C2=O)cc1 (stereo not drawn)
- MIC90 [19]: 17.5 mg/L (≈ 45.8 µM)
- IC50 [14]: 24.3 mg/L

Structure (SMILES): O=C(O)c1ccc(-c2ccc(C(F)(F)F)cc2C(F)(F)F)o1
- Ki [20]: 8.8 µM

Structure (SMILES): N#Cc1cc(C(F)(F)F)ccc1-c1ccc(C(=O)O)o1
- Ki [20]: 5.7 µM
- IC50 [21]: 18.5 µM

Structure (SMILES): COC(=O)C(=Cc1ccccc1C(F)(F)F)Oc1cccc(C(=O)OC)c1O
- MIC [22]: 25 µM (≈ 9.91 µg/mL)
- Ki [8]: 125 µM

Structure (SMILES): Nc1ncnc2c1ncn2[C@@H]1O[C@H](CNS(=O)(=O)NC(=O)c2ccccc2O)[C@H](F)[C@H]1O
- Ki [8]: 0.0006 µM
- MIC [9]: 0.6 µM (≈ 0.28 µg/mL)

Structure (SMILES): Nc1ncnc2c1ncn2[C@@H]1O[C@H](CNS(=O)(=O)NC(=O)c2ccccc2O)[C@@H](F)[C@H]1F
- MIC [2]: 37 µM (≈ 17.4 µg/mL)
- Ki [8]: 0.139 µM

Structure (SMILES): O=c1cc(CC2CCCCC2)[nH]c2c(-c3ccc(Cl)cc3)cnn12
- MIC [23]: 2.5 µM (≈ 0.855 µg/mL)

Structure (SMILES): COc1ncnc2c1ncn2[C@@H]1O[C@H](CNS(=O)(=O)NC(=O)c2ccccc2O)[C@@H](O)[C@H]1O
- Ki [24]: 0.277 µM
- MIC [25]: 5.3 mg/L (≈ 11 µM)

Structure (SMILES): C#CCCC(=O)Nc1ccc(C(=O)c2ccc(Nc3nc(N)c4ncn([C@@H]5O[C@H](COS(=O)(=O)NC(=O)c6ccccc6O)[C@@H](O)[C@H]5O)c4n3)cc2)cc1
- Ki [26]: 0.00094 µM
- MIC [11]: 50 µM (≈ 37.8 µg/mL)
- MIC [13]: 3 µM (≈ 2.27 µg/mL)

Structure (SMILES): CC=C(Oc1cccc(C(=O)O)c1O)C(=O)O
- MIC [22]: > 1 µM
- Ki [8]: 11 µM

Structure (SMILES): N#Cc1cc([N+](=O)[O-])ccc1-c1ccc(C(=O)O)o1
- Ki [20]: 5 µM
- IC50 [21]: 24.4 µM

Structure (SMILES): CC1CC(=O)c2c(cc(O)cc2C(=O)O)O1 (stereo not drawn)
- MIC [7]: 55.8 µM (≈ 12.4 µg/mL)

Structure (SMILES): CN(C[C@H]1O[C@@H](n2cnc3c(N)ncnc32)[C@H](O)[C@@H]1O)S(=O)(=O)NC(=O)c1ccccc1O
- Ki [24]: 0.159 µM
- MIC [25]: 0.8 mg/L (≈ 1.67 µM)
